32 molecules from patent US11192877B2, “3-(5-hydroxy-1-oxoisoindolin-2-yl)piperidine-2,6-dione derivatives and uses thereof” (Novartis AG, priority 2018, dated 2021) can be followed below.

Read-outs that look alike come from different tables or passages of the source.

The experiment concerns the target IKZF2 (Helios) (Homo sapiens, UniProt Q96SW2+Q9UKS7). The experiment in a line: Prolabel quantification of IKZF2 protein levels in 293GT cells. The conditions noted are these: for IKZF2 % protein reduction at 10 µM: 24 h, read-out: IKZF2 % protein reduction at 10 μM, 24 h. It counts as cell-based.
Where [1] appears, read: Pro-label assay, 293GT cells, 10 μM.

IKZF2 (Helios), sequence (Q9UKS7 whole entry): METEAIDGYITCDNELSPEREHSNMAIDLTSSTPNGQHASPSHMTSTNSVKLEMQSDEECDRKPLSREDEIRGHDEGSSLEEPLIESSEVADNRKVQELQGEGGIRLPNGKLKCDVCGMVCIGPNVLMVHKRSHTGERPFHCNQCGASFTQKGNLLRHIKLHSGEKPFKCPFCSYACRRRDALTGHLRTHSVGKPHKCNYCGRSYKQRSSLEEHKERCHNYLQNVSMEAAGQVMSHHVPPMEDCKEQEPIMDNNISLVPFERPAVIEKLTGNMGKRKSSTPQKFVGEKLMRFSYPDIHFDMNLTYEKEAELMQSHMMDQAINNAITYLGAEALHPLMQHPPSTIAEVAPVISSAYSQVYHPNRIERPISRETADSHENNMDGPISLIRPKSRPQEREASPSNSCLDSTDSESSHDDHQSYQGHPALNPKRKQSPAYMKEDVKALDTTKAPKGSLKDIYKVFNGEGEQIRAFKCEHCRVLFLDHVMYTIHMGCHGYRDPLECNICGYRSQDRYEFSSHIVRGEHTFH
IKZF2 (Helios), sequence (Q96SW2 whole entry): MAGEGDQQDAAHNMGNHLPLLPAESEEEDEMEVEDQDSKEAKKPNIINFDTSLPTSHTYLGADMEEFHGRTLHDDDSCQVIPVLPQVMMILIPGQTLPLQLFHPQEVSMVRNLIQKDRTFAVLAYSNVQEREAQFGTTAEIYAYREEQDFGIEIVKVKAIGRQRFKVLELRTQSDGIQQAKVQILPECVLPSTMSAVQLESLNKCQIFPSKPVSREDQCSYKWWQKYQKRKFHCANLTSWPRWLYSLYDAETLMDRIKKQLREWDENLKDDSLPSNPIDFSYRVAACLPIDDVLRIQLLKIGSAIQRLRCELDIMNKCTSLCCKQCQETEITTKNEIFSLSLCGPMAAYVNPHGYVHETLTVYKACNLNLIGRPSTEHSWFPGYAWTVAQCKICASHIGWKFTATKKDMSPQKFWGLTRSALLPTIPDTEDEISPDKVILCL
IKZF2 (Helios), sequence (Q16531 whole entry partner): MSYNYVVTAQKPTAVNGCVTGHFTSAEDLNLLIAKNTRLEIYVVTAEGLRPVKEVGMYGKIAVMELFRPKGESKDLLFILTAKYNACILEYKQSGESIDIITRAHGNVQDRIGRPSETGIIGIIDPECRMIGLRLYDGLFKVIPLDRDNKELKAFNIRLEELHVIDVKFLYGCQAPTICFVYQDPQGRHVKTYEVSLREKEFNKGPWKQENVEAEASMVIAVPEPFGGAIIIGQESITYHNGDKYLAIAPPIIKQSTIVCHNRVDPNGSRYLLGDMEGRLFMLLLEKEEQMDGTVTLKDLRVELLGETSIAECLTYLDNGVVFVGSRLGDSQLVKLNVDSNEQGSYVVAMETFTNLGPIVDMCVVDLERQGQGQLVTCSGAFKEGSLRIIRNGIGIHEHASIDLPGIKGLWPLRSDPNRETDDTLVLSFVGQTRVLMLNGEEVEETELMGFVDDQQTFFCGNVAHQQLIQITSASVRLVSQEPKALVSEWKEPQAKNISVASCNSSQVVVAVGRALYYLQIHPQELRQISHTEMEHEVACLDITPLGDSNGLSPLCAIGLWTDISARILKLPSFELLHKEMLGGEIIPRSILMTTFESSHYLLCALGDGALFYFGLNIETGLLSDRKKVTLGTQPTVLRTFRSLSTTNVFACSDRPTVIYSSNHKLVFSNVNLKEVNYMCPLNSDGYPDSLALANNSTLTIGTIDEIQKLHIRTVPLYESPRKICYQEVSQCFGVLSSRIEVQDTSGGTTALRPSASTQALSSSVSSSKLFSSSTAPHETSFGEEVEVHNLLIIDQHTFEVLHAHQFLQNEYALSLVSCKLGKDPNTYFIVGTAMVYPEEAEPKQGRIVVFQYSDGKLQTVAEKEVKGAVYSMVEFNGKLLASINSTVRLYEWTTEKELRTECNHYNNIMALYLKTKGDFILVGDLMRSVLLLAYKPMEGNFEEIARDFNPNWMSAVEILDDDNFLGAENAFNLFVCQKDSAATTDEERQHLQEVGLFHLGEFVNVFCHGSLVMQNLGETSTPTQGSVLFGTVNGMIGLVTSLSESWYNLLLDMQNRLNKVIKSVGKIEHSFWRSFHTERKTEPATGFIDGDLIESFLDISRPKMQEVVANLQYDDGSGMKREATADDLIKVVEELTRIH

On to `COC1(C)CCN([C@H]2CCCCC[C@@H]2Oc2ccc3c(c2)CN(C2CCC(=O)NC2=O)C3=O)CC1` (stereo partly drawn) [I-60, 3-(5-(((1S,2S)-2-(4-methoxy-4-methylpiperidin-1-yl)cycloheptyl)oxy)-1-oxoisoindolin-2-yl)piperidine-2,6-dione], for which, under setting [1], the IKZF2 % protein reduction at 10 µM was found to be 61%.

For `COc1ccccc1OC1CN([C@H]2CCCC[C@@H]2Oc2ccc3c(c2)CN(C2CCC(=O)NC2=O)C3=O)C1` (stereo partly drawn) [I-113, 3-(5-(((1S,2S)-2-(3-(2-methoxyphenoxy)azetidin-1-yl)cyclohexyl)oxy)-1-oxoisoindolin-2-yl)piperidine-2,6-dione], the IKZF2 % protein reduction at 10 µM under setting [1] amounted to 93%.

Turning to `O=C1CCC(N2Cc3cc(O[C@H]4CCC[C@@H]4N4CCCC4)ccc3C2=O)C(=O)N1` (stereo partly drawn) [I-146, 3-(1-oxo-5-(((1S,2S)-2-(pyrrolidin-1-yl)cyclopentyl)oxy)isoindolin-2-yl)piperidine-2,6-dione], the IKZF2 % protein reduction at 10 µM under setting [1] was determined as 83%.

With `CO[C@@H]1CCC[C@H]1N[C@H]1CCCC[C@@H]1Oc1ccc2c(c1)CN(C1CCC(=O)NC1=O)C2=O` (single isomer, unassigned) [I-118], under setting [1], the IKZF2 % protein reduction at 10 µM was 67%.

For `O=C1CCC(N2Cc3cc(O[C@H]4CCC[C@@H]4N4CC(OCc5ccccc5)C4)ccc3C2=O)C(=O)N1` (stereo partly drawn) [I-52, 3-(5-(((1S,2S)-2-(3-(benzyloxy)azetidin-1-yl)cyclopentyl)oxy)-1-oxoisoindolin-2-yl)piperidine-2,6-dione], the IKZF2 % protein reduction at 10 µM under setting [1] came to 89%.

`CCN[C@H]1CCC[C@@H]1Oc1ccc2c(c1)CN(C1CCC(=O)NC1=O)C2=O` (stereo partly drawn) [I-29, 3-(5-(((1S,2S)-2-(ethylamino)cyclopentyl)oxy)-1-oxoisoindolin-2-yl)piperidine-2,6-dione]: the IKZF2 % protein reduction at 10 µM under setting [1] amounted to 80%.

`C[C@@H](N[C@H]1CCCC[C@@H]1Oc1ccc2c(c1)CN(C1CCC(=O)NC1=O)C2=O)c1ccccc1` (stereo partly drawn) [I-23, 3-(1-oxo-5-(((1S,2S)-2-(((R)-1-phenylethyl)amino)cyclohexyl)oxy)isoindolin-2-yl)piperidine-2,6-dione]: the IKZF2 % protein reduction at 10 µM under setting [1] worked out at 80%.

For the molecule `O=C1CCC(N2Cc3cc(O[C@H]4CCC[C@@H]4N4CC(O)C4)ccc3C2=O)C(=O)N1` (stereo partly drawn) [I-5, 3-(5-(((1S,2S)-2-(3-hydroxyazetidin-1-yl)cyclopentyl)oxy)-1-oxoisoindolin-2-yl)piperidine-2,6-dione], the IKZF2 % protein reduction at 10 µM under setting [1] was determined as 60%.

With `COC1(C)CCN([C@H]2CCCC[C@@H]2Oc2ccc3c(c2)CN(C2CCC(=O)NC2=O)C3=O)CC1` (stereo partly drawn) [I-88, 3-(5-(((1S,2S)-2-(4-methoxy-4-methylpiperidin-1-yl)cyclohexyl)oxy)-1-oxoisoindolin-2-yl)piperidine-2,6-dione], the IKZF2 % protein reduction at 10 µM under setting [1] came to 57%.

Turning to `O=C1CCC(N2Cc3cc(O[C@H]4CCCC[C@@H]4NCCO)ccc3C2=O)C(=O)N1` (stereo partly drawn) [I-82, 3-(5-(((1S,2S)-2-((2-hydroxyethyl)amino)cyclohexyl)oxy)-1-oxoisoindolin-2-yl)piperidine-2,6-dione], under setting [1], the IKZF2 % protein reduction at 10 µM came to 58%.

On to `O=C1CCC(N2Cc3cc(O[C@H]4CCCC[C@@H]4N4CCCCC4)ccc3C2=O)C(=O)N1` (stereo partly drawn) [I-97, 3-(1-oxo-5-(((1S,2S)-2-(piperidin-1-yl)cyclohexyl)oxy)isoindolin-2-yl)piperidine-2,6-dione], for which, under setting [1], the IKZF2 % protein reduction at 10 µM was determined as 36%.

For the molecule `O=C1CCC(N2Cc3cc(O[C@H]4CCC[C@@H]4N4CCC(F)(F)CC4)ccc3C2=O)C(=O)N1` (stereo partly drawn) [I-8, 3-(5-(((1S,2S)-2-(4,4-difluoropiperidin-1-yl)cyclopentyl)oxy)-1-oxoisoindolin-2-yl)piperidine-2,6-dione], the IKZF2 % protein reduction at 10 µM under setting [1] was 50%.

Consider `O=C1CCC(N2Cc3cc(O[C@H]4CCCCC[C@@H]4NCc4ccccc4)ccc3C2=O)C(=O)N1` (stereo partly drawn) [I-58, 3-(5-(((1S,2S)-2-(benzylamino)cycloheptyl)oxy)-1-oxoisoindolin-2-yl)piperidine-2,6-dione], for which the IKZF2 % protein reduction at 10 µM came to 75%.

On to `CC1(CN(CC2(C)COC2)[C@H]2CCC[C@@H]2Oc2ccc3c(c2)CN(C2CCC(=O)NC2=O)C3=O)COC1` (stereo partly drawn) [I-148, 3-(5-(((1S,2S)-2-(bis((3-methyloxetan-3-yl)methyl)amino)cyclopentyl)oxy)-1-oxoisoindolin-2-yl)piperidine-2,6-dione], for which the IKZF2 % protein reduction at 10 µM under setting [1] worked out at 33%.

In the case of `CN(C)[C@H]1c2ccccc2C[C@@H]1Oc1ccc2c(c1)CN(C1CCC(=O)NC1=O)C2=O` (stereo partly drawn) [I-201, 3-(5-(((1S,2S)-1-(dimethylamino)-2,3-dihydro-1H-inden-2-yl)oxy)-1-oxoisoindolin-2-yl)piperidine-2,6-dione], the IKZF2 % protein reduction at 10 µM under setting [1] worked out at 46%.

`CC(C)(O)CN[C@H]1CCCC[C@@H]1Oc1ccc2c(c1)CN(C1CCC(=O)NC1=O)C2=O` (stereo partly drawn) [I-93, 3-(5-(((1S,2S)-2-((2-hydroxy-2-methylpropyl)amino)cyclohexyl)oxy)-1-oxoisoindolin-2-yl)piperidine-2,6-dione]: under setting [1], the IKZF2 % protein reduction at 10 µM stood at 60%.

Turning to `O=C1CCC(N2Cc3cc(O[C@H]4CCCC[C@@H]4NCC45CC(F)(C4)C5)ccc3C2=O)C(=O)N1` (stereo partly drawn) [I-133, 3-(5-(((1S,2S)-2-(((3-fluorobicyclo[1.1.1]pentan-1-yl)methyl)amino)cyclohexyl)oxy)-1-oxoisoindolin-2-yl)piperidine-2,6-dione], the IKZF2 % protein reduction at 10 µM under setting [1] came to 81%.

Take “3-(1-oxo-5-(((1S,2S)-2-phenoxycyclohexyl)oxy)isoindolin-2-yl)piperidine-2,6-dione and 3-(1-oxo-5-(((1R,2R)-2-phenoxycyclohexyl)oxy)isoindolin-2-yl)piperidine-2,6-dione [I-19]”: the “IKZF2 % protein reduction at 10 μM, 24 h” value under setting [1] is 10%.

Take `N#CC12CC(CN[C@H]3CCCC[C@@H]3Oc3ccc4c(c3)CN(C3CCC(=O)NC3=O)C4=O)(C1)C2` (stereo partly drawn) [I-120, 3-((((1S,2S)-2-((2-(2,6-dioxopiperidin-3-yl)-1-oxoisoindolin-5-yl)oxy)cyclohexyl)amino)methyl)bicyclo[1.1.1]pentane-1-carbonitrile]: under setting [1], the IKZF2 % protein reduction at 10 µM worked out at 66%.

For `CCOC1CN([C@H]2CCCC[C@@H]2Oc2ccc3c(c2)CN(C2CCC(=O)NC2=O)C3=O)C1` (stereo partly drawn) [I-48, 3-(5-(((1S,2S)-2-(3-ethoxyazetidin-1-yl)cyclohexyl)oxy)-1-oxoisoindolin-2-yl)piperidine-2,6-dione], the IKZF2 % protein reduction at 10 µM under setting [1] is 89%.

`CCOC1CCN([C@H]2CCC[C@@H]2Oc2ccc3c(c2)CN(C2CCC(=O)NC2=O)C3=O)CC1` (stereo partly drawn) [I-189, 3-(5-(((1S,2S)-2-(4-ethoxypiperidin-1-yl)cyclopentyl)oxy)-1-oxoisoindolin-2-yl)piperidine-2,6-dione]: the IKZF2 % protein reduction at 10 µM was determined as 70%.

Turning to `O=C1CCC(N2Cc3cc(O[C@H]4CCCC[C@@H]4NC4CC5(CCOCC5)C4)ccc3C2=O)C(=O)N1` (stereo partly drawn) [I-110, 3-(5-(((1S,2S)-2-((7-oxaspiro[3.5]nonan-2-yl)amino)cyclohexyl)oxy)-1-oxoisoindolin-2-yl)piperidine-2,6-dione], the IKZF2 % protein reduction at 10 µM under setting [1] was 89%.

`O=C1CCC(N2Cc3cc(O[C@H]4CCC[C@@H]4N4CCOCC4)ccc3C2=O)C(=O)N1` (stereo partly drawn) [I-33, 3-(5-(((1S,2S)-2-morpholinocyclopentyl)oxy)-1-oxoisoindolin-2-yl)piperidine-2,6-dione]: the IKZF2 % protein reduction at 10 µM under setting [1] was 55%.

For `COC1CN([C@H]2CCCCC[C@@H]2Oc2ccc3c(c2)CN(C2CCC(=O)NC2=O)C3=O)C1` (stereo partly drawn) [I-68, 3-(5-(((1S,2S)-2-(3-methoxyazetidin-1-yl)cycloheptyl)oxy)-1-oxoisoindolin-2-yl)piperidine-2,6-dione], the IKZF2 % protein reduction at 10 µM under setting [1] came out at 90%.

With `CCN(CC)[C@H]1CCCC[C@H]1Oc1ccc2c(c1)CN(C1CCC(=O)NC1=O)C2=O` (stereo partly drawn) [I-35, 3-(5-(((1R,2S)-2-(diethylamino)cyclohexyl)oxy)-1-oxoisoindolin-2-yl)piperidine-2,6-dione], the IKZF2 % protein reduction at 10 µM under setting [1] turned out to be 10%.

In the case of `CCCN[C@H]1CCCC[C@@H]1Oc1ccc2c(c1)CN(C1CCC(=O)NC1=O)C2=O` (stereo partly drawn) [I-71, 3-(1-oxo-5-(((1S,2S)-2-(propylamino)cyclohexyl)oxy)isoindolin-2-yl)piperidine-2,6-dione], the IKZF2 % protein reduction at 10 µM under setting [1] was determined as 88%.

On to `CC(C)CN[C@H]1CCC[C@@H]1Oc1ccc2c(c1)CN(C1CCC(=O)NC1=O)C2=O` (stereo partly drawn) [I-142, 3-(5-(((1S,2S)-2-(isobutylamino)cyclopentyl)oxy)-1-oxoisoindolin-2-yl)piperidine-2,6-dione], for which, under setting [1], the IKZF2 % protein reduction at 10 µM was determined as 83%.

In the case of `O=C1CCC(N2Cc3cc(O[C@H]4CCCC[C@@H]4N4CC(OC5CC(F)(F)C5)C4)ccc3C2=O)C(=O)N1` (stereo partly drawn) [I-56, 3-(5-(((1S,2S)-2-(3-(3,3-difluorocyclobutoxy)azetidin-1-yl)cyclohexyl)oxy)-1-oxoisoindolin-2-yl)piperidine-2,6-dione], the IKZF2 % protein reduction at 10 µM under setting [1] was 91%.

Turning to `CN(Cc1ccc(C#N)cc1)[C@H]1CCCC[C@@H]1Oc1ccc2c(c1)CN(C1CCC(=O)NC1=O)C2=O` (stereo partly drawn) [I-130, 4-((((1S,2S)-2-((2-(2,6-dioxopiperidin-3-yl)-1-oxoisoindolin-5-yl)oxy)cyclohexyl)(methyl)amino)methyl)benzonitrile], the IKZF2 % protein reduction at 10 µM under setting [1] was determined as 50%.

As to `O=C1CCC(N2Cc3cc(O[C@H]4CCC[C@@H]4NCc4ccccn4)ccc3C2=O)C(=O)N1` (stereo partly drawn) [I-145, 3-(1-oxo-5-(((1S,2S)-2-((pyridin-2-ylmethyl)amino)cyclopentyl)oxy)isoindolin-2-yl)piperidine-2,6-dione], the IKZF2 % protein reduction at 10 µM under setting [1] amounted to 52%.

As for `O=C1CCC(N2Cc3cc(O[C@H]4CCCC[C@@H]4NCC4(C(F)(F)F)CC4)ccc3C2=O)C(=O)N1` (stereo partly drawn) [I-11, 3-(1-oxo-5-(((1S,2S)-2-(((1-(trifluoromethyl)cyclopropyl)methyl)amino)cyclohexyl)oxy)isoindolin-2-yl)piperidine-2,6-dione], the IKZF2 % protein reduction at 10 µM under setting [1] turned out to be 75%.

For the molecule `CCOC1(C)CCN([C@H]2CCC[C@@H]2Oc2ccc3c(c2)CN(C2CCC(=O)NC2=O)C3=O)CC1` (stereo partly drawn) [I-158, 3-(5-(((1S,2S)-2-(4-ethoxy-4-methylpiperidin-1-yl)cyclopentyl)oxy)-1-oxoisoindolin-2-yl)piperidine-2,6-dione], under setting [1], the IKZF2 % protein reduction at 10 µM stood at 82%.
